{"source": "patent US20200121684A1", "about": "“MODULATORS OF BTK PROTEOLYSIS AND METHODS OF USE” (Yale University, priority 2018, published 2020)", "key": {"BTK": {"target": "T1, BTK (Homo sapiens, UniProt Q06187)", "T1 construct": "host or cells: NAMALWA", "experiment": "BTK degradation in NAMALWA cells, immunoblot", "assay_type": "cell-based", "settings": "NAMALWA cells"}, "HER3": {"target": "T2, HER3 (Homo sapiens, UniProt P21860)", "T2 construct": "endogenous in cells", "T2 sequence (P21860 20-1342)": "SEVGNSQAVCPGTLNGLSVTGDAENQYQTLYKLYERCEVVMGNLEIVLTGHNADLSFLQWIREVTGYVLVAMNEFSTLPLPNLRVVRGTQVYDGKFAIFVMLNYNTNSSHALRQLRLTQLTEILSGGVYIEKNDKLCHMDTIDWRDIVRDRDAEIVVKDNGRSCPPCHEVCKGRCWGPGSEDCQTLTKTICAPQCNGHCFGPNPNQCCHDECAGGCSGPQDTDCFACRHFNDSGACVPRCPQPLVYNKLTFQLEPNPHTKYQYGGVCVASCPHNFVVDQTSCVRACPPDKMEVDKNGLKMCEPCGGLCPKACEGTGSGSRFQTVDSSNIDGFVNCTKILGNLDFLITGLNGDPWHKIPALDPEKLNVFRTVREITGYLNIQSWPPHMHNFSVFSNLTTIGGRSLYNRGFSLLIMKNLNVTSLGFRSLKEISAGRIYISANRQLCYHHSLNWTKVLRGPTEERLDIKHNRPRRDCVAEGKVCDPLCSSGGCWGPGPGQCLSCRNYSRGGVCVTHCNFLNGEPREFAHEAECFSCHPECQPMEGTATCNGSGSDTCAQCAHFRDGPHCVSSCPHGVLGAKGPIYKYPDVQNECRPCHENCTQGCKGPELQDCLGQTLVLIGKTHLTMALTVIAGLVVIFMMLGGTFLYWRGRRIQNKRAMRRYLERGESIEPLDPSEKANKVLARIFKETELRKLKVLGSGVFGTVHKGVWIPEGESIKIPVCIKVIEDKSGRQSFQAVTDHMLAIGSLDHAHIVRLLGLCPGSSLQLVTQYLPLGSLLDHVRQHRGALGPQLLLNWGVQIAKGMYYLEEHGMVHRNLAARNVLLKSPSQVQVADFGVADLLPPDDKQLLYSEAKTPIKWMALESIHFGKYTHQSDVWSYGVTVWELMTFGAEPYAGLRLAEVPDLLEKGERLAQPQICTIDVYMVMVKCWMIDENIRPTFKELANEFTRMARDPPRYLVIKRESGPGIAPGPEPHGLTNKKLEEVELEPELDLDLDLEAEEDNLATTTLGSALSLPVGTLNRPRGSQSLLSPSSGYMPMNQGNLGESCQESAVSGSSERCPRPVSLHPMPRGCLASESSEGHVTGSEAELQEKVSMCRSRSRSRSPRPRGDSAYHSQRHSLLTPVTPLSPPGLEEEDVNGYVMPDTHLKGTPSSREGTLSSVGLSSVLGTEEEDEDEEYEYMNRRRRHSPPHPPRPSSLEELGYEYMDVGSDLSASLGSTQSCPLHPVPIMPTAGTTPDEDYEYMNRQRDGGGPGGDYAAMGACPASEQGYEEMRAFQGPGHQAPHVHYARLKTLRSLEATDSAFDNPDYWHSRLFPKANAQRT", "experiment": "HER3 (ERBB3) degradation, immunoblot", "assay_type": "cell-based", "settings": "Table 5"}, "C481S BTK": {"target": "C481S BTK (Homo sapiens, UniProt Q06187, C481S)", "sequence (Q06187 whole entry C481S)": "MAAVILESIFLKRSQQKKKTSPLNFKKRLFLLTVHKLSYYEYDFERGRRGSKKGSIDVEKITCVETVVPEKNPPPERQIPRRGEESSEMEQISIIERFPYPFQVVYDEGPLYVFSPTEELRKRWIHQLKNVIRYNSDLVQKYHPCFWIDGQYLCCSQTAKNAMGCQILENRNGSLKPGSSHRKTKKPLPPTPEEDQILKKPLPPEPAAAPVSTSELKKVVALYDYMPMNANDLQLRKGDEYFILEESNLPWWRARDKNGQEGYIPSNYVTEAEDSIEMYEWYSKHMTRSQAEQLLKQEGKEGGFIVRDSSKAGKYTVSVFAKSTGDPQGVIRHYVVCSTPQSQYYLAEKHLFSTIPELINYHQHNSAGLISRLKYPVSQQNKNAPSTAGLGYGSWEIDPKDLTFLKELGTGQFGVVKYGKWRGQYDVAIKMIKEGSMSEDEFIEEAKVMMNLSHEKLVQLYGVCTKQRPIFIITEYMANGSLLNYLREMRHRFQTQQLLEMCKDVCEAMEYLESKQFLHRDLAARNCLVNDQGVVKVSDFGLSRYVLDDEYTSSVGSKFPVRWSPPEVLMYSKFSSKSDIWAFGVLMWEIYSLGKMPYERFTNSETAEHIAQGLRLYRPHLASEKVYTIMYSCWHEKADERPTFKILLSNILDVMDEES", "experiment": "In vitro kinase inhibition, recombinant BTK, 10-point dose response, 10 μM ATP"}}, "note": "Structures can show the parent of a compound that is named as a salt."}
{"molecule": "Nc1ncnc2c1c(-c1ccc(Oc3ccccc3)cc1)nn2C1CCN(CCCCCCOCCOCC(=O)Nc2cccc3c2C(=O)N(C2CCC(=O)NC2=O)C3=O)CC1", "note": "(centres unmarked) [Compound 104, 2-(2-(6-(4-(4-amino-3-(4-phenoxyphenyl)-1H-pyrazolo[3,4-d]pyrimidin-1-yl)piperidin-1-yl)hexyloxy)ethoxy)-N-(2-(2,6-dioxopiperidin-3-yl)-1,3-dioxoisoindolin-4-yl)acetamide]", "values": [{"measurement": "BTK degradation at 1.0 μM", "setting": "BTK", "result": "nearly complete degradation of BTK"}, {"measurement": "HER3 Degradation", "setting": "HER3", "result": "No"}]}
{"molecule": "Nc1ncnc2c1c(-c1ccc(Oc3ccccc3)cc1)nn2C1CCN(CCCCOCCCCOCC(=O)Nc2cccc3c2C(=O)N(C2CCC(=O)NC2=O)C3=O)CC1", "note": "(centres unmarked) [Compound 106, 2-[4-[4-[4-[4-amino-3-(4-phenoxyphenyl)pyrazolo[3,4-d]pyrimidin-1-yl]-1-piperidyl]butoxy]butoxy]-N-[2-(2,6-dioxo-3-piperidyl)-1,3-dioxo-isoindolin-4-yl]acetamide]", "values": [{"measurement": "BTK degradation at 1.0 μM", "setting": "BTK", "result": "nearly complete degradation of BTK"}, {"measurement": "HER3 Degradation", "setting": "HER3", "result": "No"}]}
{"molecule": "Nc1ncnc2c1c(-c1ccc(Oc3ccccc3)cc1)nn2C1CCNCC1", "note": "[compound 1, 3-(4-phenoxyphenyl)-1-(piperidin-4-yl)-1H-pyrazolo[3,4-d]pyrimidin-4-amine hydrochloride, reference compound]", "values": [{"measurement": "inhibition potency against C481S mutant BTK relative to wild-type", "setting": "C481S BTK", "result": "retained inhibition potency"}]}
{"molecule": "(2S,4R)-1-((S)-25-(4-(4-amino-3-(4-phenoxyphenyl)-1H-pyrazolo[3,4-d]pyrimidin-1-yl)piperidin-1-yl)-2,2-dimethyl-5-oxo-7,10,13,16,19-pentaoxa-4-azapentacosanecarbonyl)-4-hydroxy-N-(4-(4-methylthiazol-5-yl)benzyl)pyrrolidine-2-carboxamide [Compound 118]", "values": [{"measurement": "DC50", "setting": "BTK; Table 5", "result": 231, "unit": "nM"}, {"measurement": "HER3 Degradation", "setting": "HER3", "result": "No"}]}
{"molecule": "Cc1ncsc1-c1ccc(CNC(=O)[C@@H]2C[C@@H](O)CN2C(=O)[C@@H](NC(=O)COCCOCCOCCOCCN2CCC(n3nc(-c4ccc(Oc5ccccc5)cc4)c4c(N)ncnc43)CC2)C(C)(C)C)cc1", "note": "[Compound 109, (2S,4R)-1-((S)-17-(4-(4-amino-3-(4-phenoxyphenyl)-1H-pyrazolo[3,4-d]pyrimidin-1-yl)piperidin-1-yl)-2-tert-butyl-4-oxo-6,9,12,15-tetraoxa-3-azaheptadecane)-4-hydroxy-N-(4-(4-methylthiazol-5-yl)benzyl)pyrrolidine-2-carboxamide]", "values": [{"measurement": "HER3 Degradation", "setting": "HER3", "result": "No"}]}
